{
  "source": "paper PMC8073686",
  "about": "“Characterization of Subtype Selective Cannabinoid CB2 Receptor Agonists as Potential Anti-Inflammatory Agents” (Pharmaceuticals, 2021)",
  "key": {"[1]": {"molecular_target": "T1, CB2 (Homo sapiens, UniProt P34972)", "T1 construct": "expressed in transfected cells; host or cells: HEK293T cells, calcium phosphate transfection, membrane preparation", "T1 sequence (P34972 whole entry)": "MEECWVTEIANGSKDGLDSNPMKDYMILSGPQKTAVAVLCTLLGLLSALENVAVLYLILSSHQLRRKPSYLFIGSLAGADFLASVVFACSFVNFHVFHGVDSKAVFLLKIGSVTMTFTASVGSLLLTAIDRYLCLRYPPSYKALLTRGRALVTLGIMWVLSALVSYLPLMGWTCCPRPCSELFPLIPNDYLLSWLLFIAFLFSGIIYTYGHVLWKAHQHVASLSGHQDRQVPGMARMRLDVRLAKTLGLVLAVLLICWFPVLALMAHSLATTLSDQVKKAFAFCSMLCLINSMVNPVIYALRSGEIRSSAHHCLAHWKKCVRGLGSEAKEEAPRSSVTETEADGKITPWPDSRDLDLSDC", "design": "method as in PMID 30951717", "settings": "competition with [3H]CP55,940; determined previously; cited from earlier work"}, "[2]": {"molecular_target": "T2, CB1 receptor (Homo sapiens, UniProt P21554)", "T2 construct": "expressed in transfected cells; host or cells: HEK293T cells (called 'HEK293 cells' in Results), calcium phosphate transfection, membrane preparation", "T2 sequence (P21554 whole entry)": "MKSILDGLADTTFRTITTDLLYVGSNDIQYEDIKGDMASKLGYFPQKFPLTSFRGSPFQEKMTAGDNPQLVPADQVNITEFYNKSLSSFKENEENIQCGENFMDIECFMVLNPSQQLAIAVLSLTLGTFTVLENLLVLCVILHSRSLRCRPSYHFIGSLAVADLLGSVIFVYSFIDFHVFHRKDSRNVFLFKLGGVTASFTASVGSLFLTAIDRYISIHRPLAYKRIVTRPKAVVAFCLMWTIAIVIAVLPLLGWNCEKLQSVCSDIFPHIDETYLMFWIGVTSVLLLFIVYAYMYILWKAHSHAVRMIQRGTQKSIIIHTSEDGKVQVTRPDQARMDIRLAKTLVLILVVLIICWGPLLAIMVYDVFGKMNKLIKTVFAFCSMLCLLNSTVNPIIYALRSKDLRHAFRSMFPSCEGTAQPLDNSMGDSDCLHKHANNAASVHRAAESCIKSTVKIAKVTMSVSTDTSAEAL", "design": "method as in PMID 30951717", "settings": "cited from earlier work"}, "[3]": {"molecular_target": "T1, CB2", "design": "method as in PMID 30951717", "settings": "stimulation of [35S]GTPγS binding; determined previously; cited from earlier work"}, "[4]": {"system": "TNF-α mRNA in Jurkat cells", "design": "method as in PMID 33712283", "settings": "concentration not given; cited from earlier work"}, "[5]": {"system": "TNF-α production in Jurkat cells", "design": "method as in PMID 33712283", "settings": "concentration not given; cited from earlier work"}, "[6]": {"molecular_target": "T1, CB2", "assay": "Competitive [3H]CP55,940 radioligand binding, CB2-transfected HEK293T cell membrane", "source_text": "(§1) To evaluate binding affinity of ABK5 analogs that have a difference in the position of substituents in the N-phenyl ring (Figure 1), we performed competitive radiolabeled ligand binding assays using cell membrane from HEK293T cells transfected with human CB2 receptors. […] ABK5-1, ABK5-2, and ABK5-6 dose-dependently competed with [^3H]CP55,940 and decreased the specific binding of the radiolabeled agonist, which reflects the binding of test compounds to CB2. […] Therefore, ABK5-5 was not considered for further evaluation in this study. […] We also examined CB2 selectivity (versus CB1) of the three compounds by performing similar binding assays using membrane from CB1 expressing HEK293 cells instead of CB2 expressing cells. […] Therefore, ABK5-1 and 5-2 maintained the CB2 subtype selectivity of ABK5.\n(§2) In the experiment, 1 × 10^6 HEK293T cells were seeded in a 10-cm cell culture dish and cultured for 24 h. Cells were transfected with CB1 or CB2 using the calcium phosphate method. Approximately one day after transfection, cells were harvested and centrifuged at 4 °C for 5 min at 500× g. The pellet was washed with phosphate buffered saline (PBS) twice and resuspended in PBS containing 1% protease-inhibitor cocktail (Sigma-Aldrich, St. Louis, MO, USA) consisting of 104 mM 4-(2-aminoethyl) benzene sulfonyl fluoride hydrochloride (AEBSF), 80 μM apronitin, 4 mM bestatin, 1.64 mM E-64, 2 mM leupeptin, 1.5 mM pepstatin A. Then the cells were subjected to nitrogen cavitation under 750 psi for 5 min using a Parr cell disruption bomb. The lysate was centrifuged at 500× g for 10 min at 4 °C and the supernatant was spun at 116,000× g for 45 min at 4 °C. The pellet, consisting of the cell membrane expressing CB1 or CB2, was resuspended in TME buffer solution (25 mM Tris-HCl, 5 mM MgCl2, and 1 mM EDTA, pH 7.4) with 7% (w/v) sucrose/TME buffer. The concentration of the membrane protein was determined by the Bradford assay (Bradford, 1976).\nMembrane protein was mixed with 1 nM to 10 μM of the test compounds and 1 nM [^3H]CP55,940 (164.9 Ci/mmol; PerkinElmer life Sciences, Waltham, MA, USA), and TME buffer supplemented with 0.2% BSA was used to bring the total volume to 200 μL. [^3H]CP55,940 acts as tracer and agonists that bind the target receptor compete with [^3H]CP55,940. Samples were incubated for 1 h at 30 °C. Ten μM unlabeled CP55,940 was used to determine non-specific binding. […] A Beckman Coulter 6500 liquid scintillation counter was used to measure the radioactivity of the samples.\nResults are presented as the mean ± standard deviation (S.D.). […] The Ki values in the ligand binding assay were calculated using the Prism software (GraphPad Software Inc., San Diego, CA, USA), using IC50 values obtained from non-linear regression fitted to the one-site binding model. […]"}, "[7]": {"molecular_target": "T2, CB1 receptor", "assay": "Competitive [3H]CP55,940 radioligand binding, membrane from CB1 expressing HEK293 cells", "source_text": "as §1, §2\nMembrane protein was mixed with 1 nM to 10 μM of the test compounds and 1 nM [^3H]CP55,940 (164.9 Ci/mmol; PerkinElmer life Sciences, Waltham, MA, USA), and TME buffer supplemented with 0.2% BSA was used to bring the total volume to 200 μL. [^3H]CP55,940 acts as tracer and agonists that bind the target receptor compete with [^3H]CP55,940. Samples were incubated for 1 h at 30 °C. Ten μM unlabeled CP55,940 was used to determine non-specific binding. Reactions were stopped by adding 5% BSA/TME buffer (w/v) and samples were filtered through a Brandel cell harvester using Whatman GF/C filter paper. Ultima Gold XR liquid scintillation cocktail (PerkinElmer Life Sciences, Waltham, MA, USA) was then added and vortexed. A Beckman Coulter 6500 liquid scintillation counter was used to measure the radioactivity of the samples.\nResults are presented as the mean ± standard deviation (S.D.). The ligand binding assays and the GTPγS binding assays were both carried out in duplicate for three independent experiments. The Ki values in the ligand binding assay were calculated using the Prism software (GraphPad Software Inc., San Diego, CA, USA), using IC50 values obtained from non-linear regression fitted to the one-site binding model. The Cheng-Prusoff equation [48], which is used for calculation of Ki value is shown below. (1) Ki=IC50/1+L/Kd"}, "[8]": {"molecular_target": "T1, CB2", "assay": "[35S]GTPγS binding assay (G-protein coupling), CB2 containing HEK293T cell membrane", "assay_type": "biochemical", "settings": "stimulation of [35S]GTPγS binding; mean ± S.D.", "description": "We also examined if the compounds can induce G-protein coupling and act as CB2 agonists. Three compounds, ABK5-1, ABK5-2, and ABK5-6, were subjected to [^35S]GTPγS binding assays. Increasing concentrations, from 1 nM to 10 μM of the test compounds, were incubated with CB2 containing HEK293T cell membrane and [^35S]GTPγS, which binds to Gi/o in the membrane upon CB2 activation and G-protein coupling. All three compounds stimulated dose-dependent increases of specific [^35S]GTPγS binding (Figure 3).\nas §2\nGTPγS binding assay buffer ([…], pH 7.4, 3 mM MgCl2, 0.2 mM EGTA, and 100 mM NaCl) membrane protein, 1 nM to 10 μM of the test compounds, 0.1 nM [^35S] GTPγS (1250 Ci/mmol; PerkinElmer Life Sciences, Waltham, MA, USA), 0.1% fatty acid free BSA (w/v), 10 μM guanosine diphosphate (GDP) and GTPγS was incubated for 1 h at 30 °C with shaking. […] A Beckman Coulter 6500 liquid scintillation counter was used to measure the radioactivity of the samples. […]"}},
  "note": "Like-named read-outs stand apart in the source and are kept apart here.",
  "data": [
    {"smiles": "CCOC(=O)c1ccccc1NC(=O)CN(c1cccc(C)c1C)S(=O)(=O)c1ccccc1", "note": "[ABK5, ethyl 2(2-(N-(2,3-dimethylphenyl)phenylsulfonamido)acetamido)benzoate]", "values": [
      {"measurement": "Ki", "setting": "[1]", "result": "16 ± 14", "unit": "nM"},
      {"measurement": "Ki CB1 (CP55,940)", "setting": "[2]; N.B. = no specific binding detected up to 10 μM, determined previously", "result": "N.B. ^c"},
      {"measurement": "CB1 binding: no binding detected up to", "setting": "[2]", "result": "> 10", "unit": "µM"},
      {"measurement": "EC50", "setting": "[3]", "result": "4 ± 3", "unit": "nM"},
      {"measurement": "decrease of TNF-α mRNA", "setting": "[4]", "result": 33, "unit": "%"},
      {"measurement": "decrease of TNF-α protein level", "setting": "[5]", "result": 30, "unit": "%"}
    ]},
    {"smiles": "CCOC(=O)c1ccc(NC(=O)CN(c2cccc(C)c2C)S(=O)(=O)c2ccccc2)cc1", "note": "[ABK5-5]", "values": [
      {"measurement": "CB2 binding, extent as % of total binding", "setting": "[6]; data not shown, Ki not calculated", "result": "≤ 60", "unit": "%"}
    ]},
    {"smiles": "CCOC(=O)c1ccccc1NC(=O)CN(c1cc(C)ccc1C)S(=O)(=O)c1ccccc1", "note": "[ABK5-6]", "values": [
      {"measurement": "Ki", "setting": "[6]; competition with [3H]CP55,940, mean ± S.D.", "result": "14 ± 2", "unit": "nM"},
      {"measurement": "CB1 binding (in words)", "setting": "[7]", "result": "weak CB1 binding in the micromolar range"},
      {"measurement": "Ki", "setting": "[7]; competition with [3H]CP55,940, N.B. = no specific binding detected up to 10 μM of test compounds", "result": "> 1000", "unit": "nM"},
      {"measurement": "EC50", "setting": "[8]", "result": "10 ± 5", "unit": "nM"}
    ]}
  ]
}
